pEC50: −log10 of the molar value. Like-named read-outs stand apart in the source and are kept apart here.
Experiments:
[1] = Antifouling assay against barnacle larvae; type: in vivo; settings: Amphibalanus amphitrite (barnacle), in vivo, barnacle larvae
Protocol: (§1) An antifouling assay against larvae of the barnacle Amphibalanus amphitrite was conducted according to the previous literature. The antifouling assay against diatoms Nitzschia sp. and Cylindrotheca closterium was conducted as follows. The diatoms were maintained in test tubes under 16 h light and 8 h dark cycle conditions at 25 °C in modified Jorgensen’s medium. Pure compounds were applied to a sample zone (16 mm in diameter) of cellulose TLC aluminum sheet (58 × 58 mm), and then each treated sheet was placed in Petri dish (15 × 90 mm in diameter). After that, 25-mL aliquots of modified Jorgensen’s medium were introduced into Petri dishes with treated sheets, and inoculated with 1 mL of cultivated diatom suspension in equivalent cell densities. Petri dishes were sealed with Parafilm to ensure a closed system, and were incubated under the same conditions. Cell growth was estimated daily, and the adhesive condition was evaluated and compared to those of the control after seven days of incubation.

[2] = system: larvae of the barnacle Amphibalanus amphitrite; test: Antifouling assay against barnacle larvae; type: in vivo; settings: for toxicity to larvae: at 10 µg/mL
Protocol: as §1

[3] = system: Cylindrotheca closterium; test: Antifouling (anti-diatom) assay on treated cellulose TLC sheet; type: cell-based; settings: at 5–10 µg/cm^2, seven days of incubation
Protocol: as §1

[4] = system: Nitzschia sp.; test: as above; type: cell-based; settings: at 5–10 µg/cm^2, seven days of incubation
Protocol: as §1

[5] = values in text, read-out: toxicity LC50
[6] = Amphibalanus amphitrite, barnacle larvae, Table 4, read-out: EC50
[7] = Amphibalanus amphitrite, barnacle larvae, values in text, read-out: antifouling activity EC50
[8] = barnacle larvae, values in text
[9] = Table 4, dash entries, read-out: LC50
[10] = Amphibalanus amphitrite, barnacle larvae, Table 4, dash entries, read-out: EC50

| SMILES | LC50 [1, 5] [µg/mL] | pEC50 [2, 6] | EC50 [2, 7] [µg/mL] | LC50 [1, 9] [µg/mL] | further results |
| --- | --- | --- | --- | --- | --- |
| CC(C)=CCCC(C)C1(O)CCC2(C)C(Br)CCC(C)(O)C2C1 (centres unmarked) [Compound 1, omaezol] | 3.7 | 6.23 | 0.15 to 0.23 | – | LC50 ([1]; Table 4, read-out: LC50): 9600 nM; antifouling activity EC50 [2, 8]: 0.23 µg/mL |
| CC[C@@H]1[C@@H]2[C@H]3OC(C=C=CBr)C[C@H]3O[C@]2(O)[C@@H](Br)C[C@H]1Br (relative stereo) [Compound 3, hachijojimallene A] | 9.8 | 6.51 | 0.15 to 0.23 | – | LC50 ([1]; Table 4, read-out: LC50): 20000 nM; antifouling activity EC50 [2, 8]: 0.15 µg/mL |
| Cc1ccc([C@]2(C)CC[C@@H]3C[C@@]32C)c(O)c1 [Compound 10, debromolaurinterol] | > 10 | 5.64 | 0.5 | > 10 | – |
| Cn1c(Br)c(Br)c2ccc(Br)cc21 [N-methyl-2,3,6-tribromoindole] | – | – | 4.3 | – | toxicity to larvae [2]: not toxic |
| CC[C@@H]1[C@@H]2[C@H]3OC(C=C=CBr)C[C@H]3O[C@@]23O[C@@H]1C[C@@H]3Br (relative stereo) [Compound 4, hachijojimallene B] | 6.8 | 6.12 | 0.31 | – | LC50 ([1]; Table 4, read-out: LC50): 17000 nM |
| Cc1ccc2c(c1)O[C@@]1(C=O)[C@@H](C)CC[C@@]21C [Compound 5, debromoaplysinal] | – | 5.37 | 1 | > 10 | toxicity to larvae [2]: did not kill any larvae |
| CC1=C(/C=C/C(C)=C/CC/C(C)=C/CO)C(C)(C)CC(O)C1 (centres unmarked) [Compound 6, 11,12-dihydro-3-hydroxyretinol] | – | – | – | – | anti-diatom activity [3]: showed inhibition; anti-diatom activity [4]: showed inhibition |
| CC1(C)C(Br)=C[C@H]2O[C@@]2(C)[C@]12C[C@H](Br)[C@@](C)(Cl)C[C@@H]2O [Compound 12, prepacifenol] | > 10 | 5.82 | 0.63 | > 10 | anti-diatom activity [3]: showed inhibition; anti-diatom activity [4]: showed inhibition |
| Cc1cc(O)c([C@]2(C)CC[C@@H]3C[C@@]32C)cc1Br [Compound 8, laurinterol] | 5.8 | 5.66 | 0.65 | – | LC50 ([1]; Table 4, read-out: LC50): 20000 nM |
| O=S(=O)([O-])[O-].[Cu+2] [CuSO4, reference compound] | – | – | – | – | LC50 ([2]; barnacle larvae, Table 4): 1400 nM; pEC50 ([2]; barnacle larvae, Table 4, read-out: EC50): 6.14; antifouling activity EC50 [2, 8]: 0.18 µg/mL |
| C=C1[C@@H](C)CC[C@@]1(C)c1cc(Br)c(C)cc1O [Compound 9, isolaurinterol] | > 10 | 5.92 | 0.34 | > 10 | – |
| CC(C)(Cl)C(Br)CCC(C)(O)C1CCC(C)(C(O)CCC2OC3(C(C)(O)CCC(Br)C(C)(C)Cl)CCC2(C)O3)O1 (centres unmarked) [Compound 2, intricatriol] | – | – | > 10 | > 10 | EC50 [2, 10]: > 10 µg/mL |
| CC1=C[C@H](O)[C@@H](Br)C(C)(C)[C@]12CC[C@](C)(Cl)[C@@H](Br)C2 [Compound 14, 2,10-dibromo-3-chloro-9-hydroxy-α-chamigrene] | > 10 | 5.21 | 2.51 | > 10 | anti-diatom activity [3]: showed inhibition; anti-diatom activity [4]: showed inhibition |
| Cc1ccc([C@]2(C)CC[C@@H](Br)C2(C)C)cc1 [Compound 11, α-bromocuparene] | – | – | – | > 10 | EC50 [2, 10]: > 10 µg/mL; antifouling activity ([2]; barnacle larvae, result in words): inactive |
| CC1(C)[C@]23C[C@H](Br)[C@@](C)(Cl)C[C@@H]2O[C@@]1(Br)C=C[C@@]3(C)O [Compound 13, pacifenol] | > 10 | 5.26 | 2.36 | > 10 | – |
